Assay results reported in PMC11653257, “Organometallic Half-Sandwich Complexes of 8-Hydroxyquinoline-Derived Mannich Bases with Enhanced Solubility: Targeting Multidrug Resistant Cancer” (Inorganic Chemistry, 2024).
Values after ≈ are worked out from the molar mass of the structure shown. Like-named read-outs stand apart in the source and are kept apart here.

Columns and labels:
A431-B1 = test system: A431-B1; set-up: method as in earlier work; details: monoculture, ref SI3, cited from earlier work
[1] = test system: Staphylococcus aureus (ATCC 25923); experiment: Antibacterial MIC, S. aureus; assay type: cell-based; details: Mueller Hinton Broth, 37 °C, 18 h
Experimental: (§1) Escherichia coli (ATCC 25922) was used as Gram-negative strain and Staphylococcus aureus (ATCC 25923, methicillin-resistant (MRSA) ATCC 43300) strains were applied as Gram-positive bacterial cultures in the experiments. MIC values of the compounds were determined in 96-well plates based on the Clinical and Laboratory Standard Institute guidelines (CLSI guidelines).[76] The stock solutions of the compounds (same as those used for cytotoxicity experiments) were diluted in 100 μL of Mueller Hinton Broth. Then, 10^–4 dilution of an overnight bacterial culture in 100 μL of medium was added to each well, with the exception of the medium control wells.

[2] = pKa of the ligands by UV–vis titration; assay type: physicochemical; details: for pKa: 0.20 M KNO3, UV–vis, I = 0.20 M KNO3, 10 equiv. EDTA
Experimental: (§2) Physico-chemical properties such as aqueous solubility, lipophilicity, and the actual protonation state at a given pH are known to influence the pharmacokinetic behavior of a drug.
(§3) An Agilent Cary 8454 diode array spectrophotometer was utilized to obtain UV–vis spectra in the wavelength range 190–1100 nm. The path length (l) was 1 or 2 cm in most cases (the actual l is always indicated in the legends of the figures). The concentrations of the ligands and complexes were between 36 and 100 μM. The ligands were titrated in the presence of 10 equiv of EDTA. Individual samples contained 0–37 μM HSA, 0–206 μM MIM, 0–759 μM AHA, or 0–733 μM FHA. Spectra were always background and baseline corrected. The computer program HypSpec[64] was used to obtain stability constants.

[3] = target: human serum albumin (HSA), site II (Homo sapiens, UniProt P02768); experiment: HSA dansylglycine (DG) site marker displacement
Experimental: (§6) Next, spectrofluorometric measurements were also performed to gain insight into the binding interactions that may occur in the hydrophobic binding sites of HSA. Tryptophan (Trp214) quenching experiments were conducted for the complexes (1–4) (for complex (3) see Figure S31) and their ligands). […] To monitor the binding at site II, site marker displacement experiments were performed using dansylglycine (DG).
(§7) Fluorescence measurements were carried out on a Fluoromax (Horiba Jobin Yvon, Longjumeau, France) spectrofluorometer using a 1 cm × 1 cm quartz cuvette. […] Excitation wavelengths were 295 nm for Trp-214 quenching and 340 nm for the DG displacement studies. The calculated conditional stability constants for HSA–complex species were obtained using the computer program HypSpec.[64] Calculations always were based on data obtained from at least two independent measurements.

[4] = target: human serum albumin (HSA), Trp214 / site I (Homo sapiens, UniProt P02768); experiment: HSA Trp214 fluorescence quenching
Experimental: as §6, §7

[5] = n-octanol/water distribution coefficient (shake-flask); assay type: physicochemical; details: pH 7.4
Experimental: The exchange of the coligand (H2O/Cl^–) changes the overall charge of the complex, thus affecting lipophilicity. […] The traditional shake-flask method was used to obtain distribution coefficients of the ligands as well as of the complexes in n-octanol/buffered aqueous solution (20 mM phosphate, pH = 7.4) at different chloride ion concentrations (4, 24, and 100 mM) using UV–vis spectrophotometry (Agilent Cary 8454 diode array spectrophotometer, Santa Clara, CA, USA) for the analysis. The compounds were dissolved in buffered aqueous solutions previously saturated with n-octanol. Then the aqueous and n-octanol phases were gently mixed in different volume ratios (using 1:60 for the ligands, 1:1 for the RhCp* and 1:2 for the RuCym complexes ratios of n-octanol to buffered aqueous solution volume) for 4 h, followed by phase separation. Then the UV–vis spectrum of the aqueous or n-octanol phase was recorded and compared to the reference spectrum. Stock solutions were made in the aqueous phase, and distribution coefficients (DpH) were calculated by the following equation: [drawing 3]

Colo320 = experiment: Cytotoxicity, Colo320; assay type: cell-based, human; details: this work
Source text: Supplementary Information
(11 pictures or pasted objects on this page, not shown here)

[6] = test system: Escherichia coli (ATCC 25922); experiment: Antibacterial MIC, E. coli; assay type: cell-based; details: Mueller Hinton Broth, 37 °C, 18 h
Experimental: as §1

MES-SA/Dx5 [7] = details: monoculture, ref SI3, cited from earlier work
[8] = pKa of the ligands by 1H NMR titration; assay type: physicochemical; details: 0.20 M KNO3 with 10% (v/v) D2O, I = 0.20 M KNO3, 25.0 °C, read-out: pKa (OH)
Experimental: as §2
(§4) Bruker Avance III HD Ascend 500 Plus instrument (Billerica, MA, USA) was used for NMR studies. ^1H NMR spectroscopic measurements were carried out with a WATERGATE water suppression pulse scheme in the presence of 10% (v/v) D2O in most cases. DSS internal standard was added to samples to obtain reference peaks. ^1H NMR titrations were carried out in the presence of 0.20 M KNO3. The computer program HypSpec[64] was used to obtain equilibrium constants.

A431 = test system: A431; set-up: method as in earlier work; details: monoculture, 72 h, PrestoBlue; ref SI3; cited from earlier work
MES-SA [9] = details: monoculture, PrestoBlue; ref SI3; cited from earlier work
[10] = Thermodynamic aqueous solubility at pH 7.4; assay type: physicochemical; details: 10 mM HEPES buffer, thermodynamic from solid, pH 7.4 (10 mM HEPES), 25.0 °C, read-out: thermodynamic aqueous solubility S7.4
Experimental: The concentration of the compounds was determined by UV–vis spectrophotometry. For calibration, stock solutions of the compounds were used with known concentrations dissolved in 100% DMSO, 75% DMSO, and 50% (v/v) DMSO/buffered aqueous solutions.

[11] = test system: methicillin-resistant S. aureus (MRSA) ATCC 43300; experiment: Antibacterial MIC, MRSA; assay type: cell-based, Staphylococcus aureus; details: Mueller Hinton Broth, 37 °C, 18 h
Experimental: as §1

[12] = pKa of in situ prepared complexes by 1H NMR titration; assay type: physicochemical; details: 1:1 system, I = 0.20 M KNO3
Source text: (§5) The results, shown in Table 2, indicate good agreement between the data obtained by the different methods. It should be noted that these processes show overlap in all cases, and therefore, the assignment of the pKa values to the given moieties cannot be made reliably. However, by comparing the spectral changes with those observed for HQ and other simple derivatives,[25] it can be concluded that the lower pKa likely belongs to the deprotonation of the aqua coligand.
as §4

MES-SA/Dx5 [13] = experiment: Cytotoxicity in double coculture, MES-SA/Dx5 eGFP; details: for SR = IC50 (MES-SA)/IC50 (MES-SA/Dx5): double coculture
Experimental: (§8) Therefore, the novel half-sandwich complexes (1–4) and their corresponding ligands were tested against a coculture of MES-SA and MES-SA/Dx5 cells expressing the fluorescent proteins mCherry or eGFP, respectively.[62]
(§9) MES-SA/B1 is a human MDR1-transfected derivative of MES-SA, and MES-SA mCherry, MES-SA/B1 mOrange, and MES-SA/Dx5 eGFP were engineered to stably express the respective fluorescent proteins previously.[62] Cells were kept in culture medium (DMEM) supplemented with 10% fetal bovine serum, 2 mM L-glutamine, 100 units/mL penicillin, and 100 μg/mL streptomycin (Thermo Fisher). One week before use, MES-SA/Dx5 eGFP cells were treated with 0.5 μM doxorubicin to ensure ABCB1/P-gp expression.
(§10) The tested compounds were dissolved in 50% (v/v) DMSO/PBS’ buffer to prepare 5–10 mM stock solutions, which were diluted in complete culture medium. Constitutive expression of the fluorescent proteins allowed multiplexing in cytotoxicity experiments.[62] […] Serial dilutions of the compounds were added 24 h after seeding. To address the effect of P-gp function, TQ was added at a nontoxic concentration (0.4 μM) 15 min before the test compounds. […] IC50 values and standard deviation were calculated from average pIC50 values from at least 3 independent measurements.

[14] = pKa of in situ prepared complexes by UV–vis titration; assay type: physicochemical; details: 1:1 system, absence of chloride, I = 0.20 M KNO3
Source text: The UV–vis spectra of the complexes prepared in situ were then followed at different pH values in the absence of chloride ions. No spectral changes were observed between pH = 2–6.3 (RuCym) or 7.5 (RhCp*), indicating high solution stability in both cases; however, the changes were significant in the basic pH range (Figure S22). In the case of RuCym complexes, two overlapping processes associated with the deprotonation of the coordinated water molecule and the noncoordinated Npyr/pipH^+ moiety were observed. […] The pKa values determined for these processes are shown in Table 2 and Figure S23 together with the values obtained for complexes formed with the amino acid hybrids HQCl-D-Pro and HQCl-D-hPro (Chart 2) for comparison.[26]
as §3

[15] = H2O/Cl– coligand exchange by UV–vis titration with chloride ions; assay type: physicochemical; details: RuCym complexes titrated at pH 6.0
Experimental: When the isolated complexes (1–4) are dissolved in water, their chlorido coligand can be replaced by water, or vice versa in the aqua complexes [M(arene)(HL)(H2O)]^2+, the H2O → Cl^– exchange process can take place in the presence of chloride ions. The chloride ion affinity of the complexes was also investigated by UV–vis spectrophotometry. RhCp* and RuCym complexes were titrated with chloride ions at pH 7.4 and 6.0, respectively. For this experiment, pH values were chosen at which the formation of the mixed hydroxido species is negligible. A representative spectrum series for complex (4) is shown in Figure S27, and the calculated conditional exchange constants (logK’ (H2O/Cl^–)) are given in Table 2 and in Figure S23. […] The complexes of the amino acid hybrids HQCl-D-Pro and HQCl-D-hPro have lower logK’ (H2O/Cl^–) constants most likely due to the repulsive effect of the nearby COO^– group.[26]

MES-SA [16] = experiment: Cytotoxicity in double coculture, MES-SA mCherry; details: read-out: IC50 MES-SA; double coculture with MES-SA/Dx5; 144 h; without TQ
Experimental: as §8, §9, §10

[17] = pKa of in situ prepared complexes by pH-potentiometry; assay type: physicochemical; details: I = 0.20 M KNO3
Source text: as §5
The pH-potentiometric measurements were carried out at 25.0 ± 0.1 °C in water in the pH range between 2.0 and 11.5 and at a constant ionic strength of 0.20 M KNO3. The titrations were performed in a carbonate-free KOH solution (0.20 M). The exact concentrations of the HNO3 and KOH solutions were determined by pH-potentiometric titrations. An Orion 710A pH-meter equipped with a Metrohm combined electrode (type 6.0234.100) and a Metrohm 665 Dosimat buret were used for this purpose. […] The average water ionization constant, pKw, was determined as 13.76 ± 0.01, which is in good agreement with the literature data.[67] The initial volume of the samples was 10.0 mL. […] Samples were degassed by bubbling purified argon through them for about 10 min prior to the measurements, and the inert gas was also passed over the solutions during the titrations. The computer program Hyperquad2013[64] was utilized to establish the stoichiometry of the species and to calculate the equilibrium constants.

[18] = pH 7.4, based on the pKa values

Chain of human serum albumin (HSA), site II (P02768 25-609): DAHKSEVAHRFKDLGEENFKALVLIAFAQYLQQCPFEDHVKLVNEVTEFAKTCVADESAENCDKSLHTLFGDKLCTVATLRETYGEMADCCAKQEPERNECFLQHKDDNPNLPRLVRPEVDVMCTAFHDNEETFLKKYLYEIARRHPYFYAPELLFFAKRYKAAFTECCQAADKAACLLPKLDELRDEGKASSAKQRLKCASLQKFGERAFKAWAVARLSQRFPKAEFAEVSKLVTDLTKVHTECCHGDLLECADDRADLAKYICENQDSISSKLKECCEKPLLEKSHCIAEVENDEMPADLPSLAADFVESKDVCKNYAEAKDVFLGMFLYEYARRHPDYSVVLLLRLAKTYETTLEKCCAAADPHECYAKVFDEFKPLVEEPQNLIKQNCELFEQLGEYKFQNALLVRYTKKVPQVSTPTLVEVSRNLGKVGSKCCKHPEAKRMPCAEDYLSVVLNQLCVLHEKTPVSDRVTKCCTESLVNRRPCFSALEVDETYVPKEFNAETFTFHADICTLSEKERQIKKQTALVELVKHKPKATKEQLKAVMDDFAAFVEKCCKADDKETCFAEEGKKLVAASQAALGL
Chain of human serum albumin (HSA), Trp214 / site I (P02768 25-609): as above

Oc1c(CN2CCCC2)cc(Cl)c2cccnc12 [HQCl-pyr, 5-chloro-7-(pyrrolidin-1-ylmethyl)quinolin-8-ol]
IC50 (A431-B1; 72 h, PrestoBlue): 1970 ± 250 nM | SR (A431 / A431-B1) (A431-B1): 3.79 | MIC ([1]; Staphylococcus aureus, ATCC25923): 50 µM (≈ 13.1 µg/mL) | pKa ([2]; read-out: pKa (Npyr/pipH+)): 11.36 ± 0.1 | pKa ([2]; read-out: pKa (NqH+)): < 2 | pKa ([2]; read-out: pKa (OH)): 7.53 ± 0.05 | fraction of H2L+ [2, 18]: 51% | fraction of HL [2, 18]: 49% | Kd [3]: 12.6 µM | Kd [4]: 25.1 µM | logD at 4 h ([5]; n-octanol/buffered aqueous solution, n-octanol/H2O, read-out: log D7.4): 1.83 | SR (Colo205 / Colo320) (Colo320): 2.0 | MIC ([6]; Escherichia coli, ATCC25922): 50 µM (≈ 13.1 µg/mL) | IC50 (MES-SA/Dx5 [7]; PrestoBlue): 300 ± 60 nM | SR (MES-SA / MES-SA/Dx5) (MES-SA/Dx5 [7]; + 1 µM TQ): 1.35 | SR (MES-SA / MES-SA/Dx5) (MES-SA/Dx5 [7]): 11.53 | pKa [8]: 7.65 ± 0.02 | IC50 (A431): 7.45 ± 0.15 µM | IC50 (MES-SA [9]): 3.46 ± 0.51 µM | solubility thermodynamic [10]: 516 ± 2 µM (≈ 136 µg/mL) | MIC ([11]; Staphylococcus aureus): 50 µM (≈ 13.1 µg/mL)

[RuCym(HQCl-Pip)Cl]Cl [(4)]
pKa (H2O) [12]: 8.50 ± 0.02 | pKa (Npyr/pipH+) [12]: 10.19 ± 0.02 | MIC [1]: > 100 µM | logK’(DG) ([3]; cHSA = cDG = 1 μM, λEX = 335 nm (DG), pH 7.4 (PBS’), […], 24 h): 5.3 ± 0.1 | logK’(quenching) ([4]; 1 μM HSA, λEX = 295 nm (Trp-214), pH 7.4 (PBS’), […], 24 h): 5.4 ± 0.2 | logD7.4 ([5]; c(Cl–) = 4 mM): +0.35 ± 0.02 | logD7.4 ([5]; c(Cl–) = 24 mM): +0.72 ± 0.02 | logD7.4 ([5]; c(Cl–) = 100 mM): +0.89 ± 0.02 | SR = IC50 (MES-SA)/IC50 (MES-SA/Dx5) (MES-SA/Dx5 [13]; + 0.4 μM tariquidar (TQ)): 0.2 | SR = IC50 (MES-SA)/IC50 (MES-SA/Dx5) (MES-SA/Dx5 [13]; without TQ): 1.8 | IC50 (MES-SA/Dx5 [13]; read-out: IC50 MES-SA/Dx5, double coculture with MES-SA, 144 h, without TQ): 1920 nM | MIC [6]: > 100 µM | pKa (H2O) [14]: 8.39 ± 0.10 | pKa (Npyr/pipH+) [14]: 10.06 ± 0.05 | MIC [11]: > 100 µM | logK’ (H2O/Cl–) [15]: 1.78 ± 0.02 | IC50 (MES-SA [16]): 3.46 µM | pKa (H2O) [17]: 8.43 ± 0.08 | pKa (Npyr/pipH+) [17]: 10.07 ± 0.07
